No end group written: not given here.
Key:
[1] = tested on: FcγIII; test: Reverse ELISA: inhibition of PAP immune complex binding to FcγIII coated plates; settings: PAP pre-incubated with peptide one hour; lower OD = more inhibition; positive control 1.588
Text: (§1) For this reason, a “reverse ELISA” technique was used to assess binding of the Fc region to ligands that bind to immune complexed IgG Fc. In a reverse ELISA, the enzyme (e.g., HRP) is not covalently conjugated to the Fc portion of the secondary antibody. Rather, a preformed immune complex of peroxidase-rabbit (or mouse) anti-peroxidase IgG (“PAP” complex) is used. […] In these experiments, an Fe CH2-CH3 cleft binding ligand (e.g., purified human C1q) was bound to microwell plates. In the absence of competitor, PAP complexes bound to the immobilized ligand and the reaction between HRP and its substrate produced a signal. This signal was reduced by polypeptides and compounds provided herein that inhibited PAP binding to the immobilized ligand.
(§2) Once the reverse ELISA protocol was established using the C1q assay, the assay was redesigned using FcγIIa, FcγIIb, and FcγIII in place of C1q. Highly purified FcγIIa, FcγIIb and FcγIII were immunoadsorbed onto plastic microwells. After optimizing the FcγR reverse ELISA system, simple competitive inhibition experiments using polypeptides provided herein were conducted to investigate their ability to inhibit binding of immune complexes to purified FcγR.
(§3) Falcon microtiter plates were coated with 1:10 dilutions of highly purified FcγIIa, FcγIIb and FcγIII and incubated for 24 hours. The plates were washed and then blocked with 5×BSA blocking solution (Alpha Diagnostic International, San Antonio, Tex.) for 24 hours. PAP immune complexes were formed as described above. PAP (100 μl) were pre-incubated with 100 μl of peptide for one hour. PAP/peptide mixtures were added to the FcγR coated plates and incubated for one hour. After washing, plates were incubated with ABTS substrate for 15 minutes and read at 405 nm.

[2] = tested on: FcγIIb; test: Reverse ELISA: inhibition of PAP immune complex binding to FcγIIb coated plates; settings: PAP pre-incubated with peptide one hour; lower OD = more inhibition; positive control 1.394
Text: as §1, §2, §3

[3] = tested on: human C1q; test: Reverse ELISA: inhibition of PAP immune complex binding to C1q coated plates; settings: for OD 405 nm: PAP pre-incubated with peptide or C1q one hour, 30 min on C1q plates, lower OD = more inhibition, positive control 2.355; for inhibition of C1q binding (in words): ranking among peptides of Table 1
Text: as §1
PAP complexes were formed mixing 2 μl of rabbit anti-peroxidase (Sigma Chemicals, St. Louis, Mo.) with 50 μl of peroxidase (Sigma-Aldrich, St. Louis, Mo.) in 1 ml distilled water. PAP (100 μl) were pre-incubated with 100 μl of peptide for one hour, 100 μl were pre-incubated with 100 μl of peptide or human C1q (Quidel Corp., San Diego, Calif.) for one hour. The C1q/PAP and peptide/PAP mixtures (100 μl) were incubated with C1q coated plates for 30 minutes. After washing, plates were incubated with ATBS (Quidel Corp.) for 15 minutes and read at 405 nm.

[4] = tested on: FcγIIa; test: Reverse ELISA: inhibition of PAP immune complex binding to FcγIIa coated plates; settings: PAP pre-incubated with peptide one hour; lower OD = more inhibition; positive control 1.599
Text: as §1, §2, §3

[5] = tested on: FcR; test: FcγR reverse ELISA, overall statement on FcR binding to PAP; settings: ranking among peptides of Table 2
Method: as §2, §3

[6] = tested on: IgG Fc; test: Alanine substitution, binding of SEQ ID NO:16 to IgG Fc; settings: alanine substitution of IgG Fc Asn-434, His-435, or Tyr-436
[7] = tested on: apo monomeric mutant SOD1 C57S (mSOD1C57S); test: Reverse ELISA: inhibition of immune complexed IgG (PAP) binding to mSOD1C57S coated plates; settings: for mSOD1C57S (OD read at 405 nm): PAP pre-incubated with peptide one hour, 60 min on plates, positive control […]; for inhibition of mSOD1C57S binding to PAP (in words): ranking among peptides of Table 3
Method: (§4) PAP complexes were prepared as described in Example 2. PAP (100 μl) were pre-incubated with 100 μl of peptide for one hour, and control (200 μl of PAP) also was incubated for one hour. 100 μl of either PAP or PAP/peptide was added to Falcon microtiter plates that had been coated for 24 hours with either 0.8 μg/ml human wtSOD1 (Sigma-Aldrich) or apo (non Cu, Zn containing) monomeric mutant SOD1 C57S (mSOD1C57S). The PAP or peptide/PAP mixtures (100 μl) were added after one hour to either wt SOD1 or mSOD1C57S coated plates for 60 minutes. After washing, plates were incubated with ATBS for 15 minutes and read at 405 nm.

[8] = tested on: human wtSOD1; test: Reverse ELISA: inhibition of immune complexed IgG (PAP) binding to wt SOD1 coated plates; settings: for wt SOD1 (OD read at 405 nm): PAP pre-incubated with peptide one hour, 60 min on plates, positive control 2.900; for inhibition of wt SOD1 binding to PAP (in words): ranking among peptides of Table 3
Method: as §4

[9] = target: FcγIII (highly purified); test: reverse ELISA: PAP without competitor on FcγIII-coated plate
[10] = target: FcγIIa (highly purified); test: reverse ELISA: PAP without competitor on FcγIIa-coated plate
Chain of FcγIIa (highly purified) (P12318 34-317): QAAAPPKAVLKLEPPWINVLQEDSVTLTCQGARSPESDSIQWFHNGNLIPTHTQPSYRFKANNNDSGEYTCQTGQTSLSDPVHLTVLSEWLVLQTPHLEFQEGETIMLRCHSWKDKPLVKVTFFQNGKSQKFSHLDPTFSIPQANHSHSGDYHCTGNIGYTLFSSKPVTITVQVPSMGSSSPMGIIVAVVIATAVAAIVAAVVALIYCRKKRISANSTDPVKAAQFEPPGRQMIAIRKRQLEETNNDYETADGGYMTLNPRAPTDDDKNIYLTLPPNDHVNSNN

[11] = target: human C1q (Quidel Corp.) (human) (UniProt P02745); test: reverse ELISA: PAP without competitor on C1q-coated plate
Chain of human C1q (Quidel Corp.) (human) (P02745 23-245 limits assumed, chain 1 of 3): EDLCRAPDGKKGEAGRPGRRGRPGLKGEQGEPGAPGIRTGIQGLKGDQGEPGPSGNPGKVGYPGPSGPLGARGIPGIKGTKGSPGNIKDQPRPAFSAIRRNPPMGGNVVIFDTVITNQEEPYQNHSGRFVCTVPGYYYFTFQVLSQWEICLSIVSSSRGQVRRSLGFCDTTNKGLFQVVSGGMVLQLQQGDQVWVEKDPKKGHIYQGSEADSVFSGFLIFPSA
Chain of human C1q (Quidel Corp.) (human) (P02746 28-253 limits assumed, chain 2 of 3, further chain): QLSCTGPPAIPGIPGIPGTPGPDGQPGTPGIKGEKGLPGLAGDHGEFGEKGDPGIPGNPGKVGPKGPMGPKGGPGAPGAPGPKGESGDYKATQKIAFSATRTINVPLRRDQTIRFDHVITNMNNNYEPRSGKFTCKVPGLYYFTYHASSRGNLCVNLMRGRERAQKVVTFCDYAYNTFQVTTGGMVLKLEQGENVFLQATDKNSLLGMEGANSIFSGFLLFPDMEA
Chain of human C1q (Quidel Corp.) (human) (P02747 29-245 limits assumed, chain 3 of 3, further chain): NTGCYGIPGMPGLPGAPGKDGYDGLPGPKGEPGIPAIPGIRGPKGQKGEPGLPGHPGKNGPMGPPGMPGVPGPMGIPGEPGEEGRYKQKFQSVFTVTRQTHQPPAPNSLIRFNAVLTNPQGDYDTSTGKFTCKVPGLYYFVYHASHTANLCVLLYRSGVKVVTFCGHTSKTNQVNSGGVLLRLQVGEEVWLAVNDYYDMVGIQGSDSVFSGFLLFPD

[12] = target: FcγIIb (highly purified); test: reverse ELISA: PAP without competitor on FcγIIb-coated plate
Chain of FcγIIb (highly purified) (P31994 43-310): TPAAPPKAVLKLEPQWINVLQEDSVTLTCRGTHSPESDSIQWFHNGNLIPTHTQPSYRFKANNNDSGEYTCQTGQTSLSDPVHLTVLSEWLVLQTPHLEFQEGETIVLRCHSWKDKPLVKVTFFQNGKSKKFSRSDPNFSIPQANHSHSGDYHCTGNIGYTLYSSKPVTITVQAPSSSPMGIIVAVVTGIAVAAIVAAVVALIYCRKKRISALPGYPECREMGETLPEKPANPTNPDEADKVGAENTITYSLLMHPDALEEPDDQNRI

[13] = target: preformed immune complex of peroxidase-rabbit anti-peroxidase IgG (PAP complex) (rabbit; horseradish) (UniProt P00433); test: competition reverse ELISA: PAP pre-incubated with peptide, residual PAP binding to FcγIIb-coated plate (competitor: immobilized FcγIIb)
Chain of preformed immune complex of peroxidase-rabbit anti-peroxidase IgG (PAP complex) (rabbit; horseradish) (P00433 31-338, one chain of several): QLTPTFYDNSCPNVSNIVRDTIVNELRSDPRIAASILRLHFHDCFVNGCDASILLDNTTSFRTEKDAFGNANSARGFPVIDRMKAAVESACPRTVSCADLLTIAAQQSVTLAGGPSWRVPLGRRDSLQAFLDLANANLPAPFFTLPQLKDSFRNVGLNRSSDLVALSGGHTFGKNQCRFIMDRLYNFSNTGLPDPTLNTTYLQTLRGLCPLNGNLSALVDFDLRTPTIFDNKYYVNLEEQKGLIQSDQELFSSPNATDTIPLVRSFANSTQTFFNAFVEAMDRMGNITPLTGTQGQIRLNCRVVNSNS

[14] = target: preformed immune complex of peroxidase-rabbit anti-peroxidase IgG (PAP complex) (rabbit; horseradish) (UniProt P00433); test: competition reverse ELISA: PAP pre-incubated with peptide, residual PAP binding to C1q-coated plate (competitor: immobilized C1q)
[15] = target: preformed immune complex of peroxidase-rabbit anti-peroxidase IgG (PAP complex) (rabbit; horseradish) (UniProt P00433); test: competition reverse ELISA: PAP pre-incubated with peptide, residual PAP binding to FcγIIa-coated plate (competitor: immobilized FcγIIa)
[16] = target: preformed immune complex of peroxidase-rabbit anti-peroxidase IgG (PAP complex) (rabbit; horseradish) (UniProt P00433); test: competition reverse ELISA: PAP pre-incubated with peptide, residual PAP binding to FcγIII-coated plate (competitor: immobilized FcγIII)
[17] = target: preformed immune complex of peroxidase-rabbit anti-peroxidase IgG (PAP complex) (rabbit; horseradish) (UniProt P00433); test: competition reverse ELISA: PAP pre-incubated with peptide, residual PAP binding to wt SOD1-coated plate (competitor: immobilized wt SOD1)
[18] = target: preformed immune complex of peroxidase-rabbit anti-peroxidase IgG (PAP complex) (rabbit; horseradish) (UniProt P00433); test: competition reverse ELISA: PAP pre-incubated with peptide, residual PAP binding to mSOD1C57S-coated plate (competitor: immobilized mSOD1C57S)

Chain of preformed immune complex of peroxidase-rabbit anti-peroxidase IgG (PAP complex) (P00433 31-338, one chain of several): as above

Molecule	FcγIII (OD read at 405 nm) [1]	FcγIIb (OD read at 405 nm) [2]	OD 405 nm [3]	FcγIIa (OD read at 405 nm) [4]	OD 405 nm [13]	OD 405 nm [14]	OD 405 nm [15]	OD 405 nm [16]	further results
APPCAFHLGELVWCT (not fully specified; cysteine pairing not given here) [SEQ ID NO:15]	0.880	0.380	0.983	0.605					
APPCARHLGELVWCT [SEQ ID NO:14]	0.709	0.768	0.567	0.956					inhibition of C1q binding (in words) [3]: next best result
APPCAWHLGELVWCT [SEQ ID NO:13]	0.530	0.562	1.148	0.658					
Ala-Pro-Pro-Asp-Cys-Ala-Trp-His-Leu-Gly-Glu-Leu-Val-Trp-Cys-Thr (APPDCAWHLGELVWCT) [SEQ ID NO:16]	0.670	0.496	0.389	0.509					inhibition of FcR binding to PAP (in words) [5]: greatest inhibition; ΔΔG, disruption of binding [6]: ≥ 1.5 kcal/mol; mSOD1C57S (OD read at 405 nm) [7]: 0.226; inhibition of mSOD1C57S binding to PAP (in words) [7]: greatest inhibition; inhibition of mSOD1C57S binding to PAP (in words) ([7]; listed as 16): best inhibition; inhibition of C1q binding (in words) [3]: greatest inhibition; wt SOD1 (OD read at 405 nm) [8]: 0.277; inhibition of wt SOD1 binding to PAP (in words) [8]: greatest inhibition; inhibition of wt SOD1 binding to PAP (in words) ([8]; listed as 16): best inhibition
Asp-Cys-Ala-Phe-His-Leu-Gly-Glu-Leu-Val-Trp-Cys-Thr (DCAFHLGELVWCT) [SEQ ID NO:3]	0.810	0.510	0.859	0.660					
Asp-Cys-Ala-Trp-His-Leu-Gly-Glu-Leu-Val-Trp-Cys-Thr [SEQ ID NO:2]	0.741	0.532	1.100	0.561					mSOD1C57S (OD read at 405 nm) [7]: 0.592; inhibition of mSOD1C57S binding to PAP (in words) ([7]; listed as 2): inhibited; wt SOD1 (OD read at 405 nm) [8]: 0.292; inhibition of wt SOD1 binding to PAP (in words) ([8]; listed as 2): inhibited
preformed immune complex of peroxidase-rabbit anti-peroxidase IgG (PAP complex) (from UniProt P00433 31-338) (antibody)									OD 405 nm [9]: 1.59 OD 405 nm; OD 405 nm [10]: 1.6 OD 405 nm; OD 405 nm [11]: 2.35 OD 405 nm; OD 405 nm [12]: 1.39 OD 405 nm
APPCAFHLGELVWCT (not fully specified; cysteine pairing not given here) [Peptide … (SEQ ID NO:15)]					0.38 OD 405 nm	0.983 OD 405 nm	0.605 OD 405 nm	0.88 OD 405 nm	
DCAFHLGELVWCT [Peptide … (SEQ ID NO:3)]					0.51 OD 405 nm	0.859 OD 405 nm	0.66 OD 405 nm	0.81 OD 405 nm	
APPCARHLGELVWCT (not fully specified; cysteine pairing not given here) [Peptide … (SEQ ID NO:14)]					0.768 OD 405 nm	0.567 OD 405 nm	0.956 OD 405 nm	0.709 OD 405 nm	
APPDCAWHLGELVWCT [Peptide … (SEQ ID NO:16)]					0.496 OD 405 nm	0.389 OD 405 nm	0.509 OD 405 nm	0.67 OD 405 nm	OD 405 nm [17]: 0.277 OD 405 nm; OD 405 nm [18]: 0.226 OD 405 nm
APPCAWHLGELVWCT (not fully specified; cysteine pairing not given here) [Peptide … (SEQ ID NO:13)]					0.562 OD 405 nm	1.15 OD 405 nm	0.658 OD 405 nm	0.53 OD 405 nm	

Source: patent US20080187490A1, “Methods for Treating Amyotrophic Lateral Sclerosis” (priority 2005, published 2008)
